Results reported in patent publication US20040235890A1, “Remedies for allergic diseases” (priority 2001, published 2004).
“Also recorded” adds a separate entry of the source. Counter-ions that a name gives are not always drawn.

Columns and labels:
NOS = conditions: cited from earlier work
Allergic rhinitis model = Allergic rhinitis model (ovalbumin-sensitised guinea pig, pituita weight); assay type: in vivo; conditions: 0.01%, 0.1% and 1.0% solution, 40 uL nasally into both sides, 10 min before 1% ovalbumin; male Crj Hartley guinea pig; monohydrochloride salt
Experimental: Allergic rhinitis model was produced by administration of ovalbumin to male Crj Hartley guinea pig (6 weeks old) in the procedure shown in table 1.
At day 42, guinea pigs were inserted with tube into the trachea under anesthesia and kept the heat using heat pat. Forty micro liter of (+)-trans-3-imino-5-methyl-7-chloro-2-azabicyclo[4.1.0]heptane monohydrochloride salt (referred to as “compound A”) or physiological saline was administered nasally into both sides. Ten minutes later, 40 uL of 1% ovalbumin was administered nasally into both sides. Thirty minutes after ovalbumin administration, moisture in the nose was removed with absorbent cotton. Fifteen minutes later, absorbent cotton of which weight was measured was inserted into nose for 15 minutes. Pituita weight was calculated by the difference in weight between pre and post insertion.

Compound	increase in NO production and vascular permeability in allergic conjunctivitis (NOS; Cornea, 19(1), 84-91 (2000))	prostaglandin E2 production in acute phase of allergic conjunctivitis (NOS; Prostaglandins, 52(6), 431-446 (1996))	effect on allergic conjunctivitis (NOS; in vivo)	Pituita weight (suppression as compared to control, physiological saline) (Allergic rhinitis model)
COC(=O)[C@@H](N)CCCNC(=N)N[N+](=O)[O-] [L-NAME, N-ω-nitro-L-arginine methylester]	suppressed	suppresses prostaglandin E2 production	the action is weak	–
C[C@H]1CC(=N)N[C@@H]2[C@H](Cl)[C@@H]21 (relative stereo) [compound A, (+)-trans-3-imino-5-methyl-7-chloro-2-azabicyclo[4.1.0]heptane monohydrochloride salt]	–	–	–	suppresses pituita weight in dose dependent manner; also recorded: noticeably suppresses pituita weights
